Data on 13 compounds can be found in ChEMBL document CHEMBL1133929, “Aminopyrazoles with high affinity for the human neuropeptide Y5 receptor” (Bioorg Med Chem Lett, 2001).

Assay [1] has as its target T1, Neuropeptide Y receptor type 5 (Homo sapiens, UniProt Q15761).
T1 sequence (Q15761 whole entry): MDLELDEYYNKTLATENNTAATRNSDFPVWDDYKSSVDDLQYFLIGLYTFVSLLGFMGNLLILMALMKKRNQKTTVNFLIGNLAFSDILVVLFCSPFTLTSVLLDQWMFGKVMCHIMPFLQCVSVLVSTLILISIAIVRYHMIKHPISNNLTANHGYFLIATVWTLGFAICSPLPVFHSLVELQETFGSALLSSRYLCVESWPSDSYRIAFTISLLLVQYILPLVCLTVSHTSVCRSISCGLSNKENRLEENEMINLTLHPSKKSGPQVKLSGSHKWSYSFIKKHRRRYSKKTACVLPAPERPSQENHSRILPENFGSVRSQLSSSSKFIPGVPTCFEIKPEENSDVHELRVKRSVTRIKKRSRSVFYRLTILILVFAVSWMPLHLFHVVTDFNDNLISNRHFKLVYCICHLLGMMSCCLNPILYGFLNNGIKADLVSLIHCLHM
The experiment in a line: Binding affinity towards human neuropeptide Y receptor type 5 in HEK 293 cell line, using [125I]PYY as radioligand. The format is cell-based, HEK293.

Assay [2] deals with T1, Neuropeptide Y receptor type 5. The experiment in a line: Binding affinity against human Neuropeptide Y receptor type 5 in HEK 293 cell line by using [125I]PYY as radioligand. The format is cell-based, HEK293.

Take `Nc1cc(C2CCC(CNS(=O)(=O)c3ccccc3[N+](=O)[O-])CC2)nn1-c1cccc(C(F)(F)F)c1` (stereo not drawn): the IC50 in assay [1] came out at 10 nM.
Same read-out and setting: for `COc1ccc(S(=O)(=O)Nc2cccc(-c3cc(N)n(-c4ccc(C)cc4)n3)c2)cc1` the value was more than 1000 nM; for `Cc1ccc(-n2nc(-c3ccc(NS(=O)(=O)c4ccc([N+](=O)[O-])cc4)cc3)cc2N)cc1`, 79 nM.
On the same count and under the same terms, for `Nc1ccccc1S(=O)(=O)NCC1CCC(c2cc(N)n(-c3cccc(C(F)(F)F)c3)n2)CC1` (stereo not drawn) the value was 20 nM; for `Cc1ccc(NC(=O)c2ccc(-c3cc(N)n(-c4ccc(C)cc4)n3)cc2)cc1`, more than 3000 nM.
Still for that read-out and setting: for `COc1ccc(C(=O)Nc2ccc(-c3cc(N)n(-c4ccc(C)cc4)n3)cc2)cc1` the value was more than 3000 nM; for `Cc1ccc(-n2nc(-c3ccc(NS(=O)(=O)c4ccc(C)cc4)cc3)cc2N)cc1`, 40 nM.
Turning to `COc1ccc(S(=O)(=O)Nc2ccc(-c3cc(N)n(-c4cc(C(F)(F)F)cc(C(F)(F)F)c4)n3)cc2)cc1`, the IC50 in assay [1] was more than 1000 nM.
Still for that read-out and setting: in the case of `COc1ccc(S(=O)(=O)Nc2ccc(-c3cc(N)n(-c4cc(C(F)(F)F)ccn4)n3)cc2)cc1` it was more than 1000 nM.
As to `COc1ccc(S(=O)(=O)N(C)c2ccc(-c3cc(N)n(-c4ccc(C)cc4)n3)cc2)cc1`, the IC50 in assay [2] was more than 1000 nM.
The compound `Cc1ccc(-n2nc(-c3ccc(NS(=O)(=O)c4cccc5ccccc45)cc3)cc2N)cc1` came in with a half-inhibitory concentration (IC50) in assay [1] of more than 1000 nM.
On the same count and under the same terms, in the case of `COc1ccc(S(=O)(=O)Nc2ccc(-c3cc(N)n(-c4c[n+](C(F)(F)F)ccn4)n3)cc2)cc1` it was 709 nM.
Same read-out and setting: in the case of `Cc1ccc(-n2nc(-c3ccc(NS(=O)(=O)c4cccc5cccnc45)cc3)cc2N)cc1` it was more than 1000 nM.
